Test results as given in US8927695B2, “Protein-based assays for screening of the IgE-receptor interaction” (The Board of Trustees of the Leland Stanford Junior …, priority 2010, dated 2015).

T1: FcεRIα (Homo sapiens, UniProt P12319)
T1 sequence (P12319 26-257): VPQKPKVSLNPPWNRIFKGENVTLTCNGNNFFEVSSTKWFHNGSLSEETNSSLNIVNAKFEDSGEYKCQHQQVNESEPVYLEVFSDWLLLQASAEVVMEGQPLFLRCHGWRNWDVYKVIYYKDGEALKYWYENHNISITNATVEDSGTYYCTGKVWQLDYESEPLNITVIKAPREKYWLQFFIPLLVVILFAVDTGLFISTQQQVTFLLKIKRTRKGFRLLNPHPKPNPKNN


Legend:
[1] = molecular target: mutant hormone / mutant receptor (hGH/hGHbp) (Homo sapiens, UniProt P01241+P10912, T201G/W122G); details: at a concentration of 100 μM; cited from earlier work
[2] = molecular target: LFA-1/ICAM-1 interaction (Homo sapiens, UniProt P05107+P20701); details: solid-phase binding assay stated for LFA703; cited from earlier work
[3] = tested on: inflammatory response; details: mouse model of acute inflammation; cited from earlier work
[4] = molecular target: transthyretin (TTR) (Homo sapiens, UniProt P02766); details: in vitro; cited from earlier work
[5] = molecular target: T2, 488-labeled 367C IgE-Fc bound to FcεRIα (Homo sapiens, UniProt P01854+P12319, K248C); assay: fluorescence assay in competitive inhibitor format; type: binding
T2 construct: starts at amino acid 1 and ends at amino acid 176 of said FcεRIα, using the numbering −25 to 232; made in house; host or cells: IgE-Fc: insect cells (Trichoplusia ni)
Experimental: Fluorescence Measurement. Samples were monitored by fluorescence using a Synergy 4 Fluorometer (BioTek) in black 96-well Costar fluorescence plates (Corning). Samples were prepared manually by mixing Alexa-488-labelled 367C IgE-Fc in 0.1% Tween-20 and 100 nM BSA, with buffered 50 mM Tris and 50 mM NaCl, pH 8. Fluorescence was measured using an excitation wavelength of 488 nm and emission was monitored at 520 nm. The read-type for typical measurements was Endpoint. All measurements were recorded in duplicate.

[6] = molecular target: T1, FcεRIα; details: natural IgE-receptor interaction; read-out: affinity of the natural receptor interaction; cited from earlier work

Molecule | inhibition of TTR amyloid fibril formation [4] | further results
Clc1ccc2nc(C(Cl)(Cl)Cl)[nH]c2c1 [5-Chloro-2-trichloromethyl benzimidazole] |  | increase in binding affinity of the mutant hormone to the mutant receptor [1]: more than 1000 fold
CC[C@H](C)C(=O)O[C@H]1C[C@@H](C)C=C2C=C[C@H](C)[C@H](CC[C@H]3C[C@@H](O)CC(=O)N3Cc3ccc4c(CO)c(OC)ccc4c3)[C@H]21 [LFA703] |  | IC50 [2]: 200 nM; inflammatory response [3]: suppress the inflammatory response
O=C(O)c1cccc2c1Oc1c(C(=O)O)cccc1N2c1cccc(C(F)(F)F)c1 [PHENOX, N-(meta-trifluoromethylphenyl)-phenoxazine-4,6-dicarboxylic acid] | potent inhibitors | 
O=C(O)Cc1ccccc1Nc1c(Cl)cccc1Cl [diclofenac] | strongly inhibited | 
O=C(O)c1ccccc1Nc1cccc(C(F)(F)F)c1 [flufenamic acid] | potently inhibit | 
CC(C(=O)O)c1ccc(-c2ccccc2)c(F)c1 (stereo not drawn) [flurbiprofen] | strongly inhibited | 
O=C(O)c1ccccc1Nc1ccccc1C(F)(F)F [o-FLU, ortho-trifluoromethylphenyl anthranilic acid] | potent inhibitors | 
Oc1ccc(C=Cc2cc(O)cc(O)c2)cc1 [resveratrol] | strongly inhibited | 
unlabeled IgE-Fc: unlabeled wild type human IgE-Fc (Cε3-Cε4) used as competitor (protein, listed as Homo sapiens, PEPTIDE (1)..(223) Wildtype IgE-Fc (C3-C4)) ADPCADSNPRGVSAYLSRPSPFDLFIRKSPTITCLVVDLAPSKGTVNLTWSRASGKPVNHSTRKEEKQRNGTLTVTSTLPVGTRDWIEGETYQCRVTHPHLPRALMRSTTKTSGPRAAPEVYAFATPEWPGSRDKRTLACLIQNFMPEDISVQWLHNEVQLPDARHSTTQPRKTKGSGFFVFSRLEVTRAEWEQKDEFICRAVHEAASPSQTVQRAVSVNPGK |  | direct effect on fluorescence of the dye-labeled IgE-Fc ([5]; control in the absence of FcεRIα): no significant effect; fluorescence recovery / competition of receptor binding ([5]; in the presence of FcεRIα): completely competed; Kd [6]: ~1 nM
